The values that follow come from publication PMC8253137, “Microbiota-derived butyrate is an endogenous HIF prolyl hydroxylase inhibitor” (Gut Microbes, 2021).

Molecules are shown by their SMILES.

The subject of one test is murine enteroids. Nature of the test: HIF stabilization in differentiated murine enteroids. The class given is cell-based, mice. As to conditions: butyrate with or without 1 mM MCPA, 4 h. The procedure: Murine intestinal organoids/enteroids were isolated from wild-type C57BL/6 mice and cultured as previously described.[60] Briefly, colonic tissues were minced and then enzymatically digested and dissociated in GentleMACS tubes (Milteny Biotec). The homogenized tissues were then filtered through a 70 µm cell strainer and resuspended in Matrigel (Corning). Cells were cultured in L-WRN conditioned media until ready for differentiation into an epithelial lineage, in which the cells were incubated for 2 d in L-WRN media diluted 5-fold with DMEM:F-12 supplemented with 10% calf serum, 1% penicillin/streptomycin, and 1% GlutaMAX™. […] MCPA treatment also includes a 2 h pretreatment with MCPA before butyrate was added.
TRIzol® reagent (ThermoFisher Scientific) was used to isolate total RNA from T84 cells. […] Quantitative PCR analysis was performed using the Power SYBR™ Green master mix (Applied Biosystems) in a thermocycler. Fold change in expression of target mRNA relative to β-actin (ACTB) mRNA was calculated using the delta-delta Ct method. […]
T84 cells were rinsed with PBS and collected and lysed in 200 µL of radioimmunoprecipitation assay (RIPA, 50 mM Tris-HCl pH 8.0, 1 mM EDTA, 1% Triton X-100, […], 0.5% sodium deoxycholate, 150 mM NaCl) buffer with protease inhibitors on ice. […] Protein quantity of the supernatant was determined using the Bradford reagent. […]

A further test has as its system HDACs. Also noted: method as in PMID 18061431, PMID 30052654. Particulars: cited from earlier work.
For a further test, the target named is PHD2_181-402 (Homo sapiens, UniProt Q9GZT9). Nature of the test: PHD2_181-402 inhibition assay (bioluminescent succinate detection, Succinate-Glo). The test is classed as biochemical. The procedure:
PHD2_181-402 activity and inhibition assays were performed with the Succinate-Glo JmjC Demethylase/Hydroxylase Assay Kit (Promega) according to manufacturer protocol and as detailed in Alves et al. […] The enzymatic reaction was incubated at room temperature for 10 minutes, after which succinate formation was detected according to manufacturer protocol. […] Then, 20 µL of Succinate Detection Reagent II was added to the reactions and incubated for 10 min at room temperature before the luciferase-generated luminescence was recorded on a plate-reading luminometer. Succinate standard curves were used to determine the sensitivity and linear range of the bioluminescent succinate detection. […] Succinate standards were serially diluted two-fold from 15 µM to 58.6 nM and a 0 succinate blank. 10 µL of succinate standards were used for detection as described above. […] Reactions were incubated at room temperature for 10 minutes and succinate detected. […] Measured IC50s were calculated from fitting the percentage activity data to the [Inhibitor] vs. normalized response – variable slope least squares nonlinear regression in GraphPad Prism 9. True IC50s were calculated from measured IC50s with the equation derived by Wu et al.[26] describing the relationship between the measured IC50 of an inhibitor and the percentage of substrate conversion.

In the next test the test system is T84 cells. Nature of the test: HIF stabilization in T84 cells (HIF-1α target mRNA, HIF-1α western blot). The test is classed as cell-based. Particulars: 4 h. The procedure: T84 cells were cultured in 95% air with 5% CO2 at 37°C in standard media made of DMEM:F-12 supplemented with 10% calf serum, 1% penicillin/streptomycin, and 1% GlutaMAX™ (ThermoFisher Scientific) on 9.6 cm^2 6-well plates (ThermoFisher Scientific). Real-time oxygen sensing was done using the SensorDish Reader from Applikon Biotechnology as described previously with T84 cells plated on 0.33 cm^2 transwell inserts (Corning, 0.4 μm).[12] All MCPA treatments included a 2 h pretreatment with MCPA before treatment with butyrate.
TRIzol® reagent (ThermoFisher Scientific) was used to isolate total RNA from T84 cells. Mouse colon tissue samples were harvested into RNAlater™ (Invitrogen) and stored at 4°C for 48 h. Total RNA was isolated from the tissues using RNeasy Plus Mini Kit (Qiagen). cDNA was prepared using the iScript cDNA Synthesis Kit (Bio-Rad). Quantitative PCR analysis was performed using the Power SYBR™ Green master mix (Applied Biosystems) in a thermocycler. Fold change in expression of target mRNA relative to β-actin (ACTB) mRNA was calculated using the delta-delta Ct method. Primer sequences used are as follows: hBNIP3 – forward, 5′- […] −3′, reverse, 5′- […] −3′; hBNIP3L – forward, 5′- […] −3′, reverse, 5′- […] −3′; hGLUT1 – forward, 5′- […] −3′, reverse, 5′- […] −3′; hACTB – forward, 5′- […]-3′, reverse, 5′- […]-3′; mBnip3 – forward, 5′- […] −3′, reverse, 5′- […] −3′; mBnip3l – forward, 5′- […] −3′, reverse, 5′- […] −3′; mGlut1 – forward, 5′- […] −3′, reverse, 5′- […] −3′; and mActb – forward, 5′- […] −3′, reverse, 5′- […] −3′.
T84 cells were rinsed with PBS and collected and lysed in 200 µL of radioimmunoprecipitation assay (RIPA, 50 mM Tris-HCl pH 8.0, 1 mM EDTA, 1% Triton X-100, […], 0.5% sodium deoxycholate, 150 mM NaCl) buffer with protease inhibitors on ice. Mouse colon samples were harvested into 350 µL of RIPA buffer and flash frozen in liquid nitrogen. Samples were homogenized by sonication, and insoluble materials removed by centrifugation at 10,000 g for 5 min at 4°C. Protein quantity of the supernatant was determined using the Bradford reagent. […]
(In general: A western blot detects proteins with antibodies after separation by electrophoresis.)

Chain of PHD2_181-402 (Q9GZT9 181-402): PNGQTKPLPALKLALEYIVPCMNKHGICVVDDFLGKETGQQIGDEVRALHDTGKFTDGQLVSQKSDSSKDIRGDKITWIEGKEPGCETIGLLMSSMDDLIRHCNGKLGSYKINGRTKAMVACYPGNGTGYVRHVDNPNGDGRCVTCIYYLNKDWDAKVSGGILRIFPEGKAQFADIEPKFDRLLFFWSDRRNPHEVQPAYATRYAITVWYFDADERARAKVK

Turning to `CCCC(=O)O` [Butyrate], in the test with murine enteroids, the HIF-1α protein expression entry is “increased HIF-1α protein expression” and the “HIF-1α target gene expression” value is on record as “induced expression of HIF-1α target genes”. Moreover, the HDAC inhibition result in the test with HDACs is given as “most potently inhibits HDACs”. At PHD2_181-402 (2-OG at 1, 5, 10, 40 or 100 µM), the “change of IC50 with increasing 2-OG” value was “did not change”. In addition, at PHD2_181-402 (calculated from true IC50 with the IC50 to Ki conversion equation of Cer et al., read-out: noncompetitive Ki), the Ki – broadly, the dissociation constant of the complex between target and ligand, obtained from inhibition or displacement – is 5.3 ± 0.5 mM. In addition, on PHD2_181-402 (from 2-OG titration, WaterLOGSY and MST), the mode of inhibition entry is “noncompetitive”. At PHD2_181-402 (read-out: True IC50), the IC50 (in general, the concentration at which inhibition is half-maximal) amounted to 5.3 ± 0.5 mM. In the test on T84 cells (10 mM butyrate with 1 mM MCPA), the “HIF stabilization in the presence of MCPA” value is reported as “still stabilized HIF”. For the same molecule, in the test with T84 cells (10 mM butyrate), the HIF-1α protein levels entry was “increased” and the “HIF-1α target gene mRNA (BNIP3, BNIP3L, GLUT1)” value is given as “induction”.
